Laboratory results from patent US20230115208A1, “RING-FUSED THIAZOLINO 2-PYRIDONES, METHODS FOR PREPARATION THEREOF AND THEIR USE IN THE TREATMENT AND/OR PREVENTION OF TUBERCULOSIS” (QURETECH BIO AB, priority 2016, published 2023).

System: Mycobacterium tuberculosis Erdman
Assay: Biofilm inhibition of Mycobacterium tuberculosis (ocular inspection)
Assay type: cell-based
Conditions: for inhibition at 10 µM / inhibition at 25 µM / inhibition at 50 µM / inhibition at 100 µM: biofilm inhibition, average of three or more measurements (100/50/0% scoring); for inhibition at 10 µM: read-out: Average % Inhibition at 10 μM; for inhibition at 25 µM: read-out: Average % Inhibition at 25 μM; for minimal effective concentration: concentration at which full biofilm inhibition took place, replicate determinations in one cell

Work on O=C(O)[C@@H]1CSc2c(C3CC3)c(Cc3cc4ccccc4s3)cc(=O)n21 [Example 2, (3R)-7-Cyclopropyl-4-oxo-6-{(7-thiabicyclo[4.3.0]nona-1,3,5,8-tetraen-8-yl)methyl}-1-thia-3a-aza-3-indancarboxylic acid] yielded an inhibition at 10 µM of 63%, an inhibition at 25 µM of 100% and an inhibition at 50 µM of 75%. It also gave a minimal effective concentration of 25 µM.

O=C(O)C1C[S+]([O-])c2c(C3CC3)c(Cc3cccc4ccccc34)cc(=O)n21 (stereo not shown) [Example 44, 7-Cyclopropyl-6-[(1-naphthyl)methyl]-1-oxo-4-oxo-1-thia-3a-aza-3-indancarboxylic acid] showed an inhibition at 10 µM of 25%, an inhibition at 25 µM of 75% and an inhibition at 50 µM of 100%.

Compound NC(=O)[C@@H]1CSc2c(C3CC3)c(Cc3cccc4ccccc34)cc(=O)n21 [Example 21, (3R)-7-Cyclopropyl-6-[(1-naphthyl)methyl]-4-oxo-1-thia-3a-aza-3-indancarboxamide] has an inhibition at 10 µM of 12%, an inhibition at 25 µM of 100% and an inhibition at 50 µM of 100%.

Cc1cccc(Cc2cc(=O)n3c(c2C2CC2)SC[C@H]3C(=O)O)c1C [Example 9, (3R)-7-Cyclopropyl-4-oxo-6-[(2,3-xylyl)methyl]-1-thia-3a-aza-3-indancarboxylic acid] was tested, and the inhibition at 10 µM was 50%, the inhibition at 25 µM was 87% and the inhibition at 50 µM was 87%. The minimal effective concentration was 25 µM.

O=C(O)C1CSc2c(C3CC3)c(Cc3cccc(C(F)(F)F)c3)cc(=O)n21 (stereo not shown) [Example 36, 7-Cyclopropyl-4-oxo-6-{[m-(trifluoromethyl)phenyl]methyl}-1-thia-3a-aza-3-indancarboxylic acid] was tested, and the inhibition at 10 µM was 100%, the inhibition at 25 µM was 100% and the inhibition at 50 µM was 100%.

CCOc1c(Cc2cccc3ccccc23)cc(=O)n2c1SC[C@H]2C(=O)O [Example 45, (3R)-7-Ethoxy-6-[(1-naphthyl)methyl]-4-oxo-1-thia-3a-aza-3-indancarboxylic acid] was tested, and the inhibition at 25 µM was 50% and the inhibition at 50 µM was 25%.

O=C(NNC(=O)C1CSc2c(C3CC3)c(Cc3cccc4ccccc34)cc(=O)n21)c1ccncc1 (stereo not shown) [Example 38, {7-Cyclopropyl-6-[(1-naphthyl)methyl]-4-oxo-1-thia-3a-aza-3-indanyl}(2-isonicotinoylhydrazino)formaldehyde] showed an inhibition at 10 µM of 100%, an inhibition at 25 µM of 100% and an inhibition at 50 µM of 100%. For the same compound, the minimal effective concentration was 25 µM.

Compound Cc1cccc(NCc2cc(=O)n3c(c2C2CC2)SC[C@H]3C(=O)O)c1C [Example 43, (3R)-7-Cyclopropyl-4-oxo-6-[(2,3-xylidino)methyl]-1-thia-3a-aza-3-indancarboxylic acid] has an inhibition at 25 µM of 50% and an inhibition at 50 µM of 100%.

With Cc1cccc(Cc2cc(=O)n3c(c2C2CC2)SC[C@H]3C(=O)O)c1 [Example 27, (3R)-7-Cyclopropyl-4-oxo-6-[(m-tolyl)methyl]-1-thia-3a-aza-3-indancarboxylic acid] the inhibition at 10 µM was 75%, the inhibition at 25 µM was 88% and the inhibition at 50 µM was 100%. For the same compound, the minimal effective concentration was 25 µM.

In the case of Cc1cccc(CCc2cc(=O)n3c(c2C(C)C)SC[C@H]3C(=O)O)c1 [Example 28, (3R)-7-Isopropyl-4-oxo-6-[2-(m-tolyl)ethyl]-1-thia-3a-aza-3-indancarboxylic acid], the minimal effective concentration was 50 µM.

Work on O=c1cc(Cc2cccc3ccccc23)c(C2CC2)c2n1[C@H](CO)CS2 [Example 16, (3R)-7-Cyclopropyl-3-(hydroxymethyl)-6-[(1-naphthyl)methyl]-1-thia-3a-aza-4-indanone] yielded an inhibition at 10 µM of 25%, an inhibition at 25 µM of 62% and an inhibition at 50 µM of 100%.

In the case of O=C(O)c1c(Cc2ccccc2)sc2c(C3CC3)c(Cc3cccc4ccccc34)cc(=O)n12 [Example 19, 8-Benzyl-5-cyclopropyl-4-[(1-naphthyl)methyl]-2-oxo-7-thia-1-azabicyclo[4.3.0]nona-3,5,8-triene-9-carboxylic acid], the inhibition at 10 µM was 0%, the inhibition at 25 µM was 0% and the inhibition at 50 µM was 88%. The inhibition at 100 µM was 100%.

O=C(O)C1CS(=O)(=O)c2c(C3CC3)c(Cc3cccc4ccccc34)cc(=O)n21 (stereo not shown) [Example 42, 7-Cyclopropyl-6-[(1-naphthyl)methyl]-1,1-dioxo-4-oxo-1-thia-3a-aza-3-indancarboxylic acid] showed an inhibition at 10 µM of 50%, an inhibition at 25 µM of 12% and an inhibition at 50 µM of 12%.

Cc1c(Cc2cccc3ccccc23)cc(=O)n2c1SC[C@H]2C(=O)O [Example 10, (3R)-7-Methyl-6-[(1-naphthyl)methyl]-4-oxo-1-thia-3a-aza-3-indancarboxylic acid] gave an inhibition at 10 µM of 69%, an inhibition at 25 µM of 100% and an inhibition at 50 µM of 100%.

In the case of O=C(O)c1c(-c2ccsc2)sc2c(C3CC3)c(Cc3cccc4ccccc34)cc(=O)n12 [Example 6, 5-Cyclopropyl-4-[(1-naphthyl)methyl]-2-oxo-8-(3-thienyl)-7-thia-1-azabicyclo[4.3.0]nona-3,5,8-triene-9-carboxylic acid], the inhibition at 10 µM was 50%, the inhibition at 25 µM was 88% and the inhibition at 50 µM was 100%. It also gave an inhibition at 100 µM of 100% and a minimal effective concentration of 30 µM.

CC(C)c1c(Cc2cccc3ccccc23)cc(=O)n2c1SC[C@H]2C(=O)O [Example 23, (3R)-7-Isopropyl-6-[(1-naphthyl)methyl]-4-oxo-1-thia-3a-aza-3-indancarboxylic acid] showed an inhibition at 25 µM of 12% and an inhibition at 50 µM of 50%.

In the case of COc1ccc(Cc2cc(=O)n3c(c2C2CC2)SCC3C(=O)O)c2ccccc12 (stereo not shown) [Example 39, 7-Cyclopropyl-6-[(4-methoxy-1-naphthyl)methyl]-4-oxo-1-thia-3a-aza-3-indancarboxylic acid], the inhibition at 10 µM was 50%, the inhibition at 25 µM was 100% and the inhibition at 50 µM was 100%.

Work on O=C(O)c1c(-c2ccccc2)sc2c(C3CC3)c(Cc3cccc4ccccc34)cc(=O)n12 [Example 13, 5-Cyclopropyl-4-[(1-naphthyl)methyl]-2-oxo-8-phenyl-7-thia-1-azabicyclo[4.3.0]nona-3,5,8-triene-9-carboxylic acid] yielded an inhibition at 10 µM of 62%, an inhibition at 25 µM of 75% and an inhibition at 50 µM of 100%. For the same compound, the minimal effective concentration was 50 µM.

O=C(O)[C@@H]1CSc2c(C3CC3)c(Cc3ccc(F)c4ccccc34)cc(=O)n21 [Example 3, (3R)-7-Cyclopropyl-6-[(4-fluoro-1-naphthyl)methyl]-4-oxo-1-thia-3a-aza-3-indancarboxylic acid] showed an inhibition at 10 µM of 100%, an inhibition at 25 µM of 100% and an inhibition at 50 µM of 100%. For the same compound, the minimal effective concentration was 50 µM.

Compound Cc1ccc(F)c(Cc2cc(=O)n3c(c2C2CC2)SC[C@H]3C(=O)O)c1 [Example 8, (3R)-7-Cyclopropyl-6-[(2-fluoro-5-methyl-phenyl)methyl]-4-oxo-1-thia-3a-aza-3-indancarboxylic acid] has an inhibition at 10 µM of 75%, an inhibition at 25 µM of 63% and an inhibition at 50 µM of 75%. The minimal effective concentration was 25 µM.

CO[C@H]1Sc2c(C3CC3)c(Cc3cccc4ccccc34)cc(=O)n2[C@@H]1C(=O)O [Example 35, (2S,3R)-7-Cyclopropyl-2-methoxy-6-[(1-naphthyl)methyl]-4-oxo-1-thia-3a-aza-3-indancarboxylic acid] gave an inhibition at 25 µM of 25%, an inhibition at 100 µM of 75% and a minimal effective concentration of 50 µM.

CS(=O)(=O)NC(=O)[C@@H]1CSc2c(C3CC3)c(Cc3cccc4ccccc34)cc(=O)n21 [Example 26, {(3R)-7-Cyclopropyl-6-[(1-naphthyl)methyl]-4-oxo-1-thia-3a-aza-3-indanyl}(methylsulfonylamino)formaldehyde] showed a minimal effective concentration of 50 µM.

Work on Cc1ccc(Cc2cc(=O)n3c(c2C2CC2)SC[C@H]3C(=O)O)c2ccccc12 [Example 4, (3R)-7-Cyclopropyl-6-[(4-methyl-1-naphthyl)methyl]-4-oxo-1-thia-3a-aza-3-indancarboxylic acid] yielded an inhibition at 10 µM of 100%, an inhibition at 25 µM of 100% and an inhibition at 50 µM of 100%. It also gave a minimal effective concentration of 25 µM.

Work on Cc1cccc(-c2sc3c(C4CC4)c(Cc4cccc5ccccc45)cc(=O)n3c2C(=O)O)c1 [Example 14, 5-Cyclopropyl-4-[(1-naphthyl)methyl]-2-oxo-8-(m-tolyl)-7-thia-1-azabicyclo[4.3.0]nona-3,5,8-triene-9-carboxylic acid] yielded an inhibition at 10 µM of 0%, an inhibition at 25 µM of 88% and an inhibition at 50 µM of 100%.

O=C(O)[C@@H]1CSc2c(C3CC3)c(Cc3ccc4ccccc4c3)cc(=O)n21 [Example 15, (3R)-7-Cyclopropyl-6-[(2-naphthyl)methyl]-4-oxo-1-thia-3a-aza-3-indancarboxylic acid] showed an inhibition at 10 µM of 87%, an inhibition at 25 µM of 100% and an inhibition at 50 µM of 100%. The minimal effective concentration was 50 µM.

With O=C(O)[C@H]1CSc2c(C3CC3)c(Cc3cccc4ccccc34)cc(=O)n21 [Example 5, (3S)-7-Cyclopropyl-6-[(1-naphthyl)methyl]-4-oxo-1-thia-3a-aza-3-indancarboxylic acid] the inhibition at 10 µM was 100%, the inhibition at 25 µM was 100% and the inhibition at 50 µM was 100%. For the same compound, the minimal effective concentration was 5 µM.

O=C(O)[C@@H]1CSc2c(C3CC3)c(Cc3cccc(Cl)c3Cl)cc(=O)n21 [Example 20, (3R)-7-Cyclopropyl-6-[(2,3-dichlorophenyl)methyl]-4-oxo-1-thia-3a-aza-3-indancarboxylic acid] showed an inhibition at 10 µM of 75%, an inhibition at 25 µM of 100% and an inhibition at 50 µM of 100%. For the same compound, the minimal effective concentration was 25 µM.

Work on O=c1cc(Cc2cccc3ccccc23)c(C2CC2)c2n1[C@H](c1nnn[nH]1)CS2 [Example 12, (3R)-7-Cyclopropyl-6-[(1-naphthyl)methyl]-3-(1H-1,2,3,4-tetrazol-5-yl)-1-thia-3a-aza-4-indanone] yielded an inhibition at 10 µM of 12%, an inhibition at 25 µM of 50% and an inhibition at 50 µM of 87%.
